Assay [1] has as its system Pseudoperonospora cubensis. Kind of assay: Cucumber downy mildew preventive test. It is filed as in vivo. The conditions noted are these: Table 8; treatment concentration 10 ppm; 7 days after inoculation. As for the experimental part: In a greenhouse, cucumber (variety: Sagamihanshiro) planted in a plastic pot having a diameter of 5 cm was grown to the 3rd to 5th-leaf stage. Spray was carried out in the same manner as in Test example 1, and after drying the chemical liquid, the pots were transferred into a greenhouse. After 3 days from the spray, a zoosporangium suspension of Pseudoperonospora cubensis was inoculated. After inoculation, the pots were placed in a high-humidity chamber (20 to 25° C.), transferred into a greenhouse on the next day, and controlling effects were examined after 7 days from the inoculation. A ratio of lesion area occupied per one leaf of cucumber was determined according to the same index as in Test example 1, and the control value and the theoretical value according to Colby's formula were similarly calculated.

In assay [2] the test system is Pyricularia oryzae. The class given is in vivo. The conditions noted are these: treatment concentration 10 ppm.
The test system of assay [3] is Puccinia recondita. Put plainly: Wheat brown rust preventive test. It is filed as in vivo. The conditions noted are these: Table 5; treatment concentration 10 ppm; 8 days after inoculation. How it is done: Wheat plants (variety: Norin 61 gou) planted in plastic pots having a diameter of 5 cm were grown indoors to the second to fourth leaf stage. Wettable powder containing the compounds indicated in Table 5 were sprayed in the same manner as in Test Example 1, and after the chemical had dried, a conidia suspension of Puccinia recondita was inoculated onto the leaves. Following inoculation, the pots were placed in the humidified chamber of an artificial inoculation room (20° C. to 23° C.), removed on the following day and then transferred to a greenhouse. Control effects were examined 8 days after inoculation. During the examination, the number of lesions on five leaves of the wheat plants was determined in accordance with the following incidence degree indicators, and control values and theoretical values as determined according to Colby's formula were calculated in the same manner as in Test Example 1.

For assay [4], the system named is Blumeria graminis. Kind of assay: Barley powdery mildew preventive test. The class given is in vivo. To be noted: Table 4; treatment concentration 10 ppm; 8 days after inoculation. As for the experimental part: Barley plants (variety: Akashinriki) planted in plastic pots having a diameter of 5 cm were grown indoors to the second to fourth leaf stage. Wettable powder containing the compounds indicated in Table 4 were sprayed in the same manner as in Test Example 1, and after the chemical had dried, conidia of Blumeria graminis was inoculated onto the leaves. Following inoculation, the pots were transferred to a constant-temperature chamber (20° C. to 25° C.), and control effects were examined 8 days after inoculation.

Assay [5] deals with Phytophthora infestans. It is filed as in vivo. The conditions noted are these: treatment concentration 10 ppm, 5 days after inoculation.
Assay [6] relates to Botrytis cinerea. To be noted: in vivo.
For assay [7], the system named is Sphaerotheca fuliginea. Put plainly: Cucumber powdery mildew preventive test. The class given is in vivo. To be noted: in vivo. The gist of the method: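 Potted cucumber at 3rd–5th-leaf stage sprayed with wettable powder formulations, then inoculated 3 days later with Sphaerotheca fuliginea conidia and kept at 20 to 25° C. Lesion area per leaf scored 7 days after inoculation; control values and Colby theoretical values calculated.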

In patent US10201158B2, “Plant disease control composition and method for controlling plant disease by application of same” (MITSUI CHEMICALS AGRO, INC., priority 2014, dated 2019) one finds Preventive value and Control value data, which are given here for 1 compound.

“And” between values parts separate entries of the source, which are not always exact repeats. Identical values can stand only once. Like-named read-outs stand apart in the source and are kept apart here.

For `CC1(C)N=C(c2cnc3ccccc3c2)c2cccc(F)c2C1(F)F` [Compound C, 3-(4,4,5-trifluoro-3,3-dimethyl-3,4-dihydroisoquinolin-1-yl)quinoline], the Preventive value came to 17 in assay [1]; 73 in assay [2] (Table 3-2); 73 in assay [2] (Table 3-3); 67 in assay [2] (Table 3-4); 67 in assay [2] (Table 3-5 (Comparative Example 2)); 40 in assay [5] (Table 6-2). In addition, the Preventive value in assay [5] (Table 6-3) is 37; in assay [6], 73 and 60 and 70 and 77 and 67 and 40; in assay [7], 33 and 40. The Control value in assay [2] (Table 3-1) is 67; in assay [3] it was 8; in assay [4] it was 6; in assay [5] (Table 6-1), 4; in assay [6], 57; in assay [7] it was 33 and 17.
